From patent US20230114674A1, “ISOINDOLINE DERIVATIVE, AND PHARMACEUTICAL COMPOSITION AND USE THEREOF” (KANGPU BIOPHARMACEUTICALS, LTD., priority 2020, published 2023)

Tests used:
[1] = test system: MM.1S myeloma cells; experiment: Cell proliferation inhibition test by CTG (CellTiter-Glo) assay; type: cell-based; details: Homo sapiens, MM1.S, 120 hours drug treatment, 4,000 cells/well, 384-well plate, read-out: MM.2S IC50
Procedure: Experimental Method for Cell Proliferation Inhibition Test by CTG Assay:
The proliferation inhibitory activity of the compounds in the MM.1S myeloma cell model was determined by CellTiter-Glo (CTG) Luminescent Cell Viability Assay (Promega). MM.1S cells (ATCC, Cat #CRL-2974) at exponential phase were resuspended in RPMI-1640 (Gibco, Cat #11875-093)+10% FBS+1% penicillin/streptomycin+2 mM Glutamax medium and counted using an automated cell counter (ViCellXR). According to the optimized cell plating density in the pre-experiments, 40 μl of cell suspension at a density of 100,000 cells/ml was plated in the corresponding wells of a 384-well plate (4,000 cells/well) to ensure that cells in the control group were at linear growth phase within the five-day experimental period. The plated 384-well plate was cultured in a 37° C., 5% CO2 incubator for 24 hours. On the day of administration, each compound was formulated into 10 mM stock solution with DMSO (Sigma, Cat #276855-1L) and the stock solution was further diluted with DMSO to 20 μM and 20 nM working solutions. Drug treatment of MM.1S cells started at a concentration of up to 100 nM and the drug was serial diluted 4-fold with 10 points, with three replicate wells. Nanoliter volumes of compound solutions were added to the corresponding wells of the 384-well plate according to the needed concentration in a non-contact spraying manner by an HPD300 microscale automated dispenser (Tecan). The final concentration of DMSO was 0.5%. After drug addition, the 384-well plate was cultured in a 37° C., 5% CO2 incubator for 120 hours. After five days of drug treatment, 25 μl of CTG reagent (Promega, Cat #G7573) was added to each well, and the plate was shaken on a plate shaker for 10 minutes to ensure that the cells were fully lysed, and then left to stand at room temperature for 10 minutes to ensure a sufficient reaction of CTG with the substrate and the generation of a stable luminescent signal. The signal is proportional to the amount of ATP in the cell lysate, i.e., the number of metabolically active cells. Chemiluminescence of the cells in the plate was detected by an EnSpire instrument. The reading of the cells at Day 0 was used as a control for cells at growth starting point and the reading of cells with 0.5% DMSO at Day 5 was used as a control for cells under growth. Cell proliferation inhibition curve was plotted using XLFit software and the IC50 value was calculated. Experiment results can be seen in Table 2.

[2] = test system: MM.1S myeloma cells; experiment: Cell proliferation inhibition test by MTS assay; type: cell-based; details: Homo sapiens, MM1.S, 72 hours drug treatment, 15,000 cells/well, 96-well plate
Procedure: Experimental Method for Cell Proliferation Inhibition Test by MTS Assay:
Proliferating MM.1S myeloma cells (ATCC, Cat #CRL-2974) were resuspended in RPMI-640 medium (Gibco, Cat #A10491-01) and counted using an automated cell counter. The cell suspension was diluted to the needed density and 100 μl (15,000 cells) of the cell suspension was plated per well in a 96-well plate. The plate was cultured in a 37° C., 5% CO2 incubator for 24 hours. On the day of administration, each compound was formulated into 20 mM stock solution with DMSO (Sigma, Cat #D2650), diluted with a medium to the needed concentration, and then added to the corresponding wells for the cell proliferation inhibition test with a drug of 4-fold serial dilution with 10 points. The final concentration of DMSO was 0.5%. After drug addition, the 96-well plate was cultured in a 37° C., 5% CO2 incubator for 72 hours. Then, 20 μl of MTS (Promega, Cat #G3581) was added to each well and the plate was cultured for 2 hours in a 37° C., 5% CO2 incubator, and then the absorbance at 490 nm of each well was recorded using an Ensight instrument. The reading of the cells at Day 0 was used as a negative control and the reading of cells with 0.5% DMSO at Day-3 was used as a positive control. Cell proliferation inhibition curve was plotted using GraphPad Prism 5 software and the IC50 value was calculated. Experiment results can be seen in Table 1.

SMILES | IC50 [1] [nM] | IC50 [2] [nM]
N#Cc1ccc(N2CCN(Cc3ccc(COc4cccc5c4CN([C@H]4CCC(=O)NC4=O)C5=O)c(F)c3)CC2)c(F)c1Cl [CM-48] | 0.0365 | –
COc1c(C#N)ccc(N2CCN(Cc3ccc(COc4cccc5c4CN([C@H]4CCC(=O)NC4=O)C5=O)c(F)c3)CC2)c1F [CM-49] | 0.0606 | –
Nc1cccc2c1CN(C1CCC(=O)NC1=O)C2=O (stereo not shown) [Control 1, reference compound] | 119 | 23.1
